Data taken from publication PMC9500072, “Topical application of an irreversible small molecule inhibitor of lysyl oxidases ameliorates skin scarring and fibrosis” (Nature Communications, 2022).

What was measured:
Dog Aorta LOX = Dog Aorta LOX (Canis lupus familiaris, UniProt A0A8I3N9H6); format: biochemical
Experimental: The measurement of the enzymatic activity of all lysyl oxidase family members was based on the detection of hydrogen peroxide with an Amplex-Red oxidation assay, as previously described; miniaturized in 384 well formats, with the appropriate combination of substrate and assay buffer for each individual enzyme. After a 30 min pre-incubation of the enzyme at 37 °C with the test compound (or with different incubation times for the time-dependency assay), one volume of reaction mixture containing 120 μM Amplex Red (AR) (Life Technologies), 1.5 U/mL horseradish peroxidase (HRP) (Sigma-Aldrich) and the specific substrate was added to each sample. The relative fluorescence units (RFU) were then measured every 2.5 min for 30 min at 37 °C, excitation 565 nm and emission 590, on a BMG Clariostar Microplate Reader. All the substrates were used at concentrations corresponding to their Km towards the corresponding enzyme, or with a range of different concentrations for the substrate competition experiments.
Lysyl oxidases assay buffer contained 1.2 M urea, 50 mM sodium borate buffer, pH 8.2 and 100 µM β-aminoproprionitrile (BAPN, Sigma-Aldrich) was used for low control. […]

fibroblasts = test: RNASeq transcriptome analysis, fibroblasts; format: cell-based, human; settings: 24 hrs of treatment
Nicotinic Acetylcholine = test: Eurofins panel 258590; format: binding, human; settings: 10 µM
[1] = Stability in cream formulations; format: physicochemical
Adenosine A3 = Adenosine A3 (Homo sapiens, UniProt P0DMS8); test: Eurofins panel 200720; format: binding
Chain of Adenosine A3 (P0DMS8 whole entry): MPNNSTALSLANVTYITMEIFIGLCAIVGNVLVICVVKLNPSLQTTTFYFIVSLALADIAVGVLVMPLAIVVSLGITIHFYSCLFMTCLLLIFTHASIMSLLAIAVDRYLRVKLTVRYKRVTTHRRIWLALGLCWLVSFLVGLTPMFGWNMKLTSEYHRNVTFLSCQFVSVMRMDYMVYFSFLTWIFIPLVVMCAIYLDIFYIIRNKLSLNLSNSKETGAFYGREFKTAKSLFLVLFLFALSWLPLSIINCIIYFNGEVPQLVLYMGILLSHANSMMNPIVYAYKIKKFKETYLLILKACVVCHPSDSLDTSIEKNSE

[2] = test system: Glutamate, NMDA, Phencyclidine; test: Eurofins panel 233000; format: binding, rat; settings: 10 µM
[3] = Rat pharmacokinetic-pharmacodynamic model, skin concentration; format: in vivo; settings: topical; for concentration at 24 h after the last dose: 24 h after last dose; for concentration at 24 h: 500 mg on 16 cm^2, 24 h
Experimental: PXS-6302 was formulated as an oil in water cream of different concentrations (0, 0.3, 1, 10%) and applied to a shaved area on the back of a rat (500 mg cream applied to 16 cm^2). After 24 h animals were sacrificed, the concentration of PXS-6302 in the skin was measured and the lysyl oxidase activity determined.
To investigate the effect of repeat dosing, cream at different concentrations (0, 0.5, 1, and 3% PXS-6302, 400 mg applied to 16 cm^2) was applied once daily for 5 consecutive days and 24 h after the last dose, animals were sacrificed and the skin concentration determined.
PXS-6302 was formulated as an oil in water cream of different concentrations (0, 0.3, 1, 10%) and applied to a shaved area on the back of an adult rat (500 mg cream applied to 16 cm^2 skin surface area). After 24 h animals were euthanased. For the detection of lysyl oxidase activity in the skin, epidermal and dermal layers of the skin were dissected, pre-cooled with liquid nitrogen and pulverized. Samples were washed by homogenization with ice-cold wash buffer (0.15 M NaCl, 50 mM sodium borate, pH 8.0 with 0.25 mM PMSF and 1 µL/mL bovine aprotinin as protease inhibitors) at 100 µL/mg, centrifuged at 10,000 × g for 10 min at 4 °C and supernatant discarded. After the final washing step, the pellet was resuspended in extraction buffer (6 M urea, 50 mM sodium borate, pH 8.2 with 0.25 mM PMSF and 1 µL/mL aprotinin as protease inhibitors) with ratio of buffer volume to tissue weight at 4:1. After a 3 h incubation at 4 °C, the mixture was diluted 1:2 with assay buffer containing 50 mM sodium borate (pH 8.2), centrifuged at 20,000 × g for 20 min at 4 °C. The collected supernatant was spiked with pargyline hydrochloride and mofegiline hydrochloride at final concentrations of 0.5 mM and 1 µM, respectively, to inhibit amine oxidases. Lysyl oxidase activity was measured as previously described. The concentration of PXS-6302 in the skin was also measured in the same samples using LCMSMS as described for Franz cell diffusion assay.

Chain of Dog Aorta LOX (A0A8I3N9H6 entry or part of it): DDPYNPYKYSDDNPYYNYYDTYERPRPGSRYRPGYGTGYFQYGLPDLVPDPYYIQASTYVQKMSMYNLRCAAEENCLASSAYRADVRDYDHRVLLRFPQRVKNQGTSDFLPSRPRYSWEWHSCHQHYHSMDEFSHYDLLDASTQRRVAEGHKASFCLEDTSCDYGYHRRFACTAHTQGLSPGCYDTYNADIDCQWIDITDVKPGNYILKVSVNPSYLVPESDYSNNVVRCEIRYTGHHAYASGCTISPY

For `N#CCCN` [BAPN, β-aminoproprionitrile, reference compound], the “Dog Aorta LOX pIC50±SD” value (Dog Aorta LOX) was 5.7 ± 0.1 and the IC50 (Dog Aorta LOX) was 2130 nM.

In the case of `NC/C=C(\F)CS(=O)(=O)c1ccccc1` [PXS-4787], the “Log2 fold change ACTA2-AS1” value (fibroblasts) is reported as -3.268, the “Log2 fold change GAL” value (fibroblasts) is reported as 2.787 and the “Log2 fold change ICOSLG” value (fibroblasts) is reported as 1.738. The “Log2 fold change TMEM88” value (fibroblasts) was 2.374, the “% Inh.” value (Nicotinic Acetylcholine) was 1% and the “stability in cream formulations” value [1] was “some unwanted degradation occurred”. The inhibition at 10 µM (Adenosine A3) was 4% and the “% Inh.” value [2] was 8%.

Compound `NC/C=C(\F)C(F)(F)S(=O)(=O)c1ccccc1` [PXS-6302] has a concentration at 24 h after the last dose ([3]; 400 mg of 0.5% cream on 16 cm^2, once daily for 5 days, 0.5% cream 400 mg once daily 5 days) of 4900 ± 800 ng/g, a concentration at 24 h after the last dose ([3]; 400 mg of 1% cream on 16 cm^2, once daily for 5 days, 1% cream 400 mg once daily 5 days) of 9300 ± 700 ng/g and a concentration at 24 h after the last dose ([3]; 400 mg of 3% cream on 16 cm^2, once daily for 5 days, 3% cream 400 mg once daily 5 days) of 31700 ± 3280 ng/g. It also gave a concentration at 24 h ([3]; 500 mg of 0.3% cream on 16 cm^2, single dose 0.3% cream) of 7900 ± 1500 ng/g, a concentration at 24 h ([3]; 500 mg of 1% cream on 16 cm^2, single dose 1% cream) of 8900 ± 1400 ng/g and a concentration at 24 h ([3]; 500 mg of 10% cream on 16 cm^2, single dose 10% cream) of 119000 ± 7800 ng/g.
